Where a SMILES comes first, the peptide text is derived from it. Bridges are numbered along the chain shown (N, C = ends). [ ]: non-standard residue; d: D form. The star is where a group is joined. hPhe(3-Cl-4-CF3) = N[C@@H](CCc1ccc(C(F)(F)F)c(Cl)c1)C(=O)O; NPrPhe(4-CF3) = CCCN[C@@H](Cc1ccc(C(F)(F)F)cc1)C(=O)O; NMeGly(cPent) = CN[C@H](C(=O)O)C1CCCC1; NMeL = CN[C@@H](CC(C)C)C(=O)O; Morpholide = C1CN(*)CCO1; Ac5c = NC1(C(=O)O)CCCC1; Aze = O=C(O)[C@@H]1CCN1; Ac4c = NC1(C(=O)O)CCC1; NEtG = CCNCC(=O)O; Sar = CNCC(=O)O
What was measured:
HRAS wild-type protein = HRAS wild-type protein (Homo sapiens, UniProt P01112); test: Binding to HRAS by surface plasmon resonance (SPR), KD and KD ratio to KRAS
Outline: (§1)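 SPR, 30°C: Avi-biotin RAS·GDP captured via Biotin CAPture (~100–300 RU); running buffer HBS pH 7.4, 1 mM DTT, 10 mM MgCl2, 0.01% Tween 20, 10 µM GDP, 4% DMSO. Single-cycle kinetics, 100 µL/min, 75 s injections; 1:1 model → KD.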

[1] = test system: human lung cancer strain NCI-H441; assay type: cell-based
Outline: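 Proliferation was scored by […] measured after the reagent was added to cultures kept at 37°C in 5% carbon dioxide.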

[2] = molecular target: GDP-bound NRAS wild-type protein (Homo sapiens, UniProt P01111); test: Binding to NRAS by surface plasmon resonance (SPR), KD and KD ratio to KRAS
Outline: as §1

[3] = ratio of the KD value with respect to HRAS wild-type protein to the KD value with respect to KRAS
[4] = ratio of the KD value with respect to GDP-bound NRAS wild-type protein to the KD value with respect to KRAS
[5] = ratio of KD for HRAS wild-type protein to KD for KRAS
[6] = ratio of KD for GDP-bound NRAS wild-type protein to KD for KRAS

HRAS wild-type protein, sequence (P01112 whole entry): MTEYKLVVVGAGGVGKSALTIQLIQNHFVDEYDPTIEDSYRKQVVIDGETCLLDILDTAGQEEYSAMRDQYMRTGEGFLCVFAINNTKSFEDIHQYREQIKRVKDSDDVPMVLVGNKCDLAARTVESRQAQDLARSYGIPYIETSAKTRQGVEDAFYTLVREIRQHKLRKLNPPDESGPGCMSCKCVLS
GDP-bound NRAS wild-type protein, sequence (P01111 whole entry): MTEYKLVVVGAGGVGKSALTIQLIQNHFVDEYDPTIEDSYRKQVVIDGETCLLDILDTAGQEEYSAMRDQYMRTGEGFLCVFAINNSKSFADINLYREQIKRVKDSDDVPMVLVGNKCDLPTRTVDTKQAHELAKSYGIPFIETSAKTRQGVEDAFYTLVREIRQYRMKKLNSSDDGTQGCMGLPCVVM

Row | SMILES | HRAS /KRAS (HRAS wild-type protein; ratio of KD with respect to HRAS wild-type protein to KD with respect to KRAS) | IC50 [1] | NRAS /KRAS ([2]; ratio of KD with respect to GDP-bound NRAS wild-type protein to KD with respect to KRAS) | HRAS /KRAS (HRAS wild-type protein; [3]) | NRAS /KRAS [2, 4] | HRAS /KRAS (HRAS wild-type protein; [5]) | NRAS /KRAS [2, 6]
1 | CCO[C@@H]1C[C@H]2C(=O)NC3(CCC3)C(=O)N(C)[C@@H](C3CCCC3)C(=O)N(C)[C@H](C(=O)N(CC)CC)CC(=O)N(C)[C@@H](CC(C)C)C(=O)N[C@@H]([C@@H](C)CC)C(=O)N(C)CC(=O)N(C)[C@H]3C/C=C\CCN(C3=O)[C@@H](Cc3ccc(C(F)(F)F)cc3)C(=O)N(C)CC(=O)N[C@@H](CCc3cc(F)c(C(F)(F)F)c(F)c3)C(=O)N2C1 [PP1306] | A (a compound having 10 or more and less than 20 is denoted as A) | 14.7 nM | AA (a compound having 20 or more is denoted as AA) | – | – | – | –
2 | CCC[C@H]1C(=O)N[C@@H]([C@@H](C)CC)C(=O)N(C)CC(=O)N(C)[C@H]2CCCCCN(C2=O)[C@@H](Cc2ccc(C(F)(F)F)cc2)C(=O)N(C)CC(=O)N[C@@H](CCc2cc(F)c(C(F)(F)F)c(F)c2)C(=O)N2C[C@H](OCC)C[C@H]2C(=O)NC2(CCC2)C(=O)N(C)[C@@H](C2CCCC2)C(=O)N(C)[C@H](C(=O)N2CCOCC2)CC(=O)N1C [PP0679] | – | 40.2 nM | – | B (a compound having 3 or more and less than 10 is denoted as B) | B (a compound having 3 or more and less than 10 is denoted as B) | – | –
3 | CCCN1C(=O)CN(C)C(=O)[C@@H]2CCN2C(=O)[C@H]([C@@H](C)CC)NC(=O)[C@H](CC(C)C)N(C)C(=O)C[C@@H](C(=O)N(C)C)NC(=O)[C@H](C2CCCC2)N(C)C(=O)C2(CCCC2)NC(=O)[C@@H]2CCCN2C(=O)[C@H](CCc2ccc(C(F)(F)F)c(Cl)c2)NC(=O)CN(C)C(=O)[C@@H]1Cc1ccc(C(F)(F)F)cc1 [PP0373] ([NMeL]I[Aze][Sar][NPrPhe(4-CF3)][Sar][hPhe(3-Cl-4-CF3)]P[Ac5c][NMeGly(cPent)]D-NMe2; lactam N-11) | – | 152 nM | – | – | – | B (a compound having 3 or more and less than 10 is denoted as B) | B (a compound having 3 or more and less than 10 is denoted as B)
4 | C#CC[C@H]1C(=O)N[C@@H]([C@@H](C)CC)C(=O)N(C)CC(=O)N(C)[C@H]2CCCCCN(C2=O)[C@@H](Cc2ccc(C(F)(F)F)cc2)C(=O)N(C)CC(=O)N[C@@H](CCc2cc(F)c(C(F)(F)F)c(F)c2)C(=O)N2C[C@H](OCC)C[C@H]2C(=O)NC2(CCC2)C(=O)N(C)[C@@H](C2CCCC2)C(=O)N(C)[C@H](C(=O)N2CCOCC2)CC(=O)N1C [PP0681] | – | 24.2 nM | – | B (a compound having 3 or more and less than 10 is denoted as B) | B (a compound having 3 or more and less than 10 is denoted as B) | – | –
5 | CCC[C@H]1C(=O)N[C@@H]([C@@H](C)CC)C(=O)N(C)CC(=O)N(C)[C@H]2C/C=C\CCN(C2=O)[C@@H](Cc2ccc(C(F)(F)F)cc2)C(=O)N(C)CC(=O)N[C@@H](CCc2ccc(C(F)(F)F)c(Cl)c2)C(=O)N2CC3(CC3)C[C@H]2C(=O)NC2(CC(C)(C)C2)C(=O)N(C)[C@@H]([C@@H](C)CC)C(=O)N(C)[C@H](C(=O)N(C)C)CC(=O)N1C [PP2983] | – | 18.7 nM | – | – | – | A (a compound having 10 or more and less than 20 is denoted as A) | AA (a compound having 20 or more is denoted as AA)
6 | CCCN1C(=O)CN(C)C(=O)CN(CC)C(=O)[C@H]([C@@H](C)CC)NC(=O)[C@H](CC(C)C)N(C)C(=O)C[C@@H](C(=O)N2CCOCC2)NC(=O)[C@H](C2CCCC2)N(C)C(=O)C2(CCC2)NC(=O)[C@@H]2CCCN2C(=O)[C@H](CCc2ccc(C(F)(F)F)c(Cl)c2)NC(=O)CN(C)C(=O)[C@@H]1Cc1ccc(C(F)(F)F)cc1 [PP0332] ([NMeL]I[NEtG][Sar][NPrPhe(4-CF3)][Sar][hPhe(3-Cl-4-CF3)]P[Ac4c][NMeGly(cPent)]D-Morpholide; lactam N-11) | – | 167 nM | – | – | – | B (a compound having 3 or more and less than 10 is denoted as B) | B (a compound having 3 or more and less than 10 is denoted as B)
7 | CCO[C@@H]1C[C@H]2C(=O)NC3(CCC3)C(=O)N(C)[C@@H](C3CCCC3)C(=O)N(CCC3CCC3)[C@H](C(=O)N(C)C)CC(=O)N(C)[C@@H](CC)C(=O)N[C@@H]([C@@H](C)CC)C(=O)N(C)CC(=O)N(C)[C@H]3CCCCCN(C3=O)[C@@H](Cc3ccc(C(F)(F)F)cc3)C(=O)N(C)CC(=O)N[C@@H](CCc3cc(F)c(C(F)(F)F)c(F)c3)C(=O)N2C1 [PP0635] | – | 85.6 nM | – | B (a compound having 3 or more and less than 10 is denoted as B) | B (a compound having 3 or more and less than 10 is denoted as B) | – | –
